Source: ChEMBL document CHEMBL1145260, “Design, synthesis and structure-activity relationships of 6-O-arylpropargyl diazalides with potent activity against multidrug-resistant Streptococcus pneumoniae” (2005)
Values after ≈ are worked out from the molar mass of the structure shown.

Key:
Type in all cases: functional
[1] = system: Streptococcus pneumoniae; assay: Minimum inhibitory concentration against Streptococcus pneumoniae 5979 strain
[2] = system: Staphylococcus aureus; assay: Minimum inhibitory concentration against Staphylococcus aureus 6538P (erythromycin-susceptible strain)
[3] = system: Streptococcus pneumoniae; assay: Minimum inhibitory concentration against Streptococcus pneumoniae 5649 strain
[4] = system: Streptococcus pyogenes; assay: Minimum inhibitory concentration against Streptococcus pyogenes EES61 (erythromycin-susceptible strain)
[5] = system: Haemophilus influenzae; assay: Minimum inhibitory concentration against Haemophilus influenzae GYR1435 (erythromycin susceptible strain)
[6] = system: Streptococcus pneumoniae; assay: Minimum inhibitory concentration against Streptococcus pneumoniae ATCC 6303 (erythromycin-susceptible strain)
[7] = system: Streptococcus pyogenes; assay: Minimum inhibitory concentration against Streptococcus pyogenes 930 (erythromycin-resistant strain)
[8] = system: Staphylococcus aureus; assay: Minimum inhibitory concentration against Staphylococcus aureus A5177 (erythromycin-resistant strain

Row | SMILES | MIC [1] [µg/mL] | MIC [2] [µg/mL] | MIC [3] [µg/mL] | MIC [4] [µg/mL] | MIC [5] [µg/mL] | MIC [6] [µg/mL] | MIC [7] [µg/mL] | MIC [8] [µg/mL]
1 | CC[C@H]1OC(=O)[C@H](C)C(=O)[C@H](C)[C@@H](O[C@@H]2O[C@H](C)C[C@H](N(C)C)[C@H]2O)[C@@](C)(OCC#CCCc2ccc(-c3cccs3)cc2)C[C@@H](C)C2=NCCN3C(=O)O[C@@]1(C)[C@H]3[C@H]2C | 0.125 (≈ 0.147 µM) | 1 (≈ 1.18 µM) | 0.25 (≈ 0.295 µM) | ≤ 0.008 | 8 (≈ 9.43 µM) | 0.015 (≈ 0.0177 µM) | 0.5 (≈ 0.59 µM) | 0.5 (≈ 0.59 µM)
2 | CC[C@H]1OC(=O)[C@H](C)C(=O)[C@H](C)[C@@H](O[C@@H]2O[C@H](C)C[C@H](N(C)C)[C@H]2O)[C@@](C)(OCC#Cc2cccnc2)C[C@@H](C)C2=NCCN3C(=O)O[C@@]1(C)[C@H]3[C@H]2C | > 128 | 0.2 (≈ 0.271 µM) | 1 (≈ 1.35 µM) | 0.03 (≈ 0.0406 µM) | 2 (≈ 2.71 µM) | 0.03 (≈ 0.0406 µM) | 64 (≈ 86.6 µM) | 0.2 (≈ 0.271 µM)
3 | CC[C@H]1OC(=O)[C@H](C)C(=O)[C@H](C)[C@@H](O[C@@H]2O[C@H](C)C[C@H](N(C)C)[C@H]2O)[C@@](C)(OCC#Cc2cccs2)C[C@@H](C)C2=NCCN3C(=O)O[C@@]1(C)[C@H]3[C@H]2C | > 128 | 0.1 (≈ 0.134 µM) | 0.25 (≈ 0.336 µM) | 0.03 (≈ 0.0403 µM) | 4 (≈ 5.38 µM) | 0.03 (≈ 0.0403 µM) | 64 (≈ 86 µM) | 0.1 (≈ 0.134 µM)
4 | CC[C@H]1OC(=O)[C@@](C)(F)C(=O)[C@H](C)[C@@H](O[C@@H]2O[C@H](C)C[C@H](N(C)C)[C@H]2O)[C@@](C)(OCC#Cc2ccc(-c3nnn(C)n3)s2)C[C@@H](C)C2=NCCN3C(=O)O[C@@]1(C)[C@H]3[C@H]2C | 0.125 (≈ 0.148 µM) | 0.5 (≈ 0.592 µM) | 0.25 (≈ 0.296 µM) | ≤ 0.008 | 4 (≈ 4.74 µM) | ≤ 0.008 | 2 (≈ 2.37 µM) | 0.125 (≈ 0.148 µM)
5 | CC[C@H]1OC(=O)[C@H](C)C(=O)[C@H](C)[C@@H](O[C@@H]2O[C@H](C)C[C@H](N(C)C)[C@H]2O)[C@@](C)(OCC#Cc2ccc(-c3cccs3)cc2)C[C@@H](C)C2=NCCN3C(=O)O[C@@]1(C)[C@H]3[C@H]2C | ≤ 0.008 | 0.5 (≈ 0.61 µM) | ≤ 0.008 | ≤ 0.008 | 2 (≈ 2.44 µM) | ≤ 0.008 | 4 (≈ 4.88 µM) | 0.03 (≈ 0.0366 µM)
6 | CC[C@H]1OC(=O)[C@H](C)C(=O)[C@H](C)[C@@H](O[C@@H]2O[C@H](C)C[C@H](N(C)C)[C@H]2O)[C@@](C)(OCC#Cc2cnc3c(F)cccc3c2)C[C@@H](C)C2=NCCN3C(=O)O[C@@]1(C)[C@H]3[C@H]2C | 4 (≈ 4.96 µM) | 0.06 (≈ 0.0744 µM) | 0.25 (≈ 0.31 µM) | ≤ 0.008 | 2 (≈ 2.48 µM) | 0.004 (≈ 0.00496 µM) | 0.5 (≈ 0.62 µM) | 0.1 (≈ 0.124 µM)
7 | CC[C@H]1OC(=O)[C@@](C)(F)C(=O)[C@H](C)[C@@H](O[C@@H]2O[C@H](C)C[C@H](N(C)C)[C@H]2O)[C@@](C)(OCC#Cc2cnc3c(F)cccc3c2)C[C@@H](C)C2=NCCN3C(=O)O[C@@]1(C)[C@H]3[C@H]2C | 0.125 (≈ 0.152 µM) | 0.25 (≈ 0.303 µM) | 0.125 (≈ 0.152 µM) | ≤ 0.008 | 4 (≈ 4.85 µM) | ≤ 0.008 | 0.25 (≈ 0.303 µM) | 0.125 (≈ 0.152 µM)
8 | CC[C@H]1OC(=O)[C@H](C)C(=O)[C@H](C)[C@@H](O[C@@H]2O[C@H](C)C[C@H](N(C)C)[C@H]2O)[C@@](C)(OCC#Cc2cnc3c(OC)cccc3c2)C[C@@H](C)C2=NCCN3C(=O)O[C@@]1(C)[C@H]3[C@H]2C | 8 (≈ 9.77 µM) | 0.25 (≈ 0.305 µM) | 0.06 (≈ 0.0733 µM) | ≤ 0.008 | 2 (≈ 2.44 µM) | ≤ 0.008 | 4 (≈ 4.88 µM) | 0.06 (≈ 0.0733 µM)
9 | CC[C@H]1OC(=O)[C@H](C)C(=O)[C@H](C)[C@@H](O[C@@H]2O[C@H](C)C[C@H](N(C)C)[C@H]2O)[C@@](C)(OCC#Cc2ccccc2)C[C@@H](C)C2=NCCN3C(=O)O[C@@]1(C)[C@H]3[C@H]2C | > 128 | 0.2 (≈ 0.271 µM) | 0.5 (≈ 0.678 µM) | 0.06 (≈ 0.0813 µM) | 8 (≈ 10.8 µM) | 0.03 (≈ 0.0407 µM) | 64 (≈ 86.7 µM) | 0.2 (≈ 0.271 µM)
10 | CC[C@H]1OC(=O)[C@H](C)C(=O)[C@H](C)[C@@H](O[C@@H]2O[C@H](C)C[C@H](N(C)C)[C@H]2O)[C@@](C)(OCC#Cc2ccc(-c3ccccn3)cc2)C[C@@H](C)C2=NCCN3C(=O)O[C@@]1(C)[C@H]3[C@H]2C | ≤ 0.008 | 0.25 (≈ 0.307 µM) | ≤ 0.008 | ≤ 0.008 | 1 (≈ 1.23 µM) | ≤ 0.008 | 8 (≈ 9.82 µM) | 0.03 (≈ 0.0368 µM)
11 | CC[C@H]1OC(=O)[C@H](C)C(=O)[C@H](C)[C@@H](O[C@@H]2O[C@H](C)C[C@H](N(C)C)[C@H]2O)[C@@](C)(OC)C[C@@H](C)C2=NCCN3C(=O)O[C@@]1(C)[C@H]3[C@H]2C | > 128 | 0.1 (≈ 0.157 µM) | 1 (≈ 1.57 µM) | 0.06 (≈ 0.0941 µM) | 4 (≈ 6.27 µM) | 0.06 (≈ 0.0941 µM) | > 128 | 0.1 (≈ 0.157 µM)
12 | CC[C@H]1OC(=O)[C@H](C)C(=O)[C@H](C)[C@@H](O[C@@H]2O[C@H](C)C[C@H](N(C)C)[C@H]2O)[C@@](C)(OCC#Cc2ccc(-c3nnn(C)n3)s2)C[C@@H](C)C2=NCCN3C(=O)O[C@@]1(C)[C@H]3[C@H]2C | 0.003 (≈ 0.00363 µM) | 0.5 (≈ 0.605 µM) | 0.06 (≈ 0.0726 µM) | ≤ 0.008 | 4 (≈ 4.84 µM) | ≤ 0.008 | 2 (≈ 2.42 µM) | 0.125 (≈ 0.151 µM)
13 | CC[C@H]1OC(=O)[C@H](C)C(=O)[C@H](C)[C@@H](O[C@@H]2O[C@H](C)C[C@H](N(C)C)[C@H]2O)[C@@](C)(OCC#CCCc2ccc(-c3ccccn3)cc2)C[C@@H](C)C2=NCCN3C(=O)O[C@@]1(C)[C@H]3[C@H]2C | 0.03 (≈ 0.0356 µM) | 0.25 (≈ 0.297 µM) | 0.06 (≈ 0.0712 µM) | ≤ 0.008 | 2 (≈ 2.37 µM) | ≤ 0.008 | 0.5 (≈ 0.593 µM) | 0.25 (≈ 0.297 µM)
14 | CC[C@H]1OC(=O)[C@H](C)C(=O)[C@H](C)[C@@H](O[C@@H]2O[C@H](C)C[C@H](N(C)C)[C@H]2O)[C@@](C)(OCC#Cc2cnc3ccccc3c2)C[C@@H](C)C2=NCCN3C(=O)O[C@@]1(C)[C@H]3[C@H]2C | 2 (≈ 2.53 µM) | 0.1 (≈ 0.127 µM) | 0.25 (≈ 0.317 µM) | 0.015 (≈ 0.019 µM) | 2 (≈ 2.53 µM) | ≤ 0.004 | 1 (≈ 1.27 µM) | 0.1 (≈ 0.127 µM)
15 | CC[C@H]1OC(=O)[C@H](C)C(=O)[C@H](C)[C@@H](O[C@@H]2O[C@H](C)C[C@H](N(C)C)[C@H]2O)[C@](C)(OCC=Cc2cnc3ccccc3c2)C[C@@H](C)C(=O)[C@H](C)[C@H]2NC(=O)O[C@@]21C [CETHROMYCIN] | 16 (≈ 20.9 µM) | 0.05 (≈ 0.0653 µM) | 0.25 (≈ 0.326 µM) | < 0.005 | 2 (≈ 2.61 µM) | 0.03 (≈ 0.0392 µM) | 1 (≈ 1.31 µM) | 0.05 (≈ 0.0653 µM)
16 | CC[C@H]1OC(=O)[C@H](C)[C@@H](O[C@H]2C[C@@](C)(OC)[C@@H](O)[C@H](C)O2)[C@H](C)[C@@H](O[C@@H]2O[C@H](C)C[C@H](N(C)C)[C@H]2O)[C@](C)(O)C[C@@H](C)C(=O)[C@H](C)[C@@H](O)[C@]1(C)O [ERYTHROMYCIN] | > 128 | 0.39 (≈ 0.531 µM) | 16 (≈ 21.8 µM) | 0.03 (≈ 0.0409 µM) | 8 (≈ 10.9 µM) | 0.06 (≈ 0.0818 µM) | > 128 | 6.2 (≈ 8.45 µM)
